{"source": "patent US11266715B2", "about": "“C3A receptor agonists for use against ischemic brain injury, stroke, traumatic brain injury, spinal cord injury and neurodegenerative disorders” (priority 2016, dated 2022)", "system": "GAP-43+ puncta", "experiment": "GAP-43 immunostaining of dorsal hippocampus after neonatal HI", "assay_type": "in vivo, mouse", "procedure": "Neuronal nuclei (NeuN), growth associated protein 43 (GAP-43), synapsin I (SYN), vesicular glutamate transporter 1 (VGLUT1), Glial Fibrillary Acidic Protein (GFAP) and ionized calcium-binding adapter molecule 1 (Iba-1) were visualized in the cornu ammonis (CA) and dentate gyrus (DG) of the dorsal hippocampus by immunohistochemistry. Briefly, following heat-induced antigen retrieval with 0.01 M citrate buffer (pH 6, 0.05% Tween 20) for 3×5 min, sections were washed 3×5 min with PBS-T (0.05% Tween 20), non-specific protein binding was reduced by incubation with blocking buffer [4% normal donkey serum (NeuN and Iba-1), 1% bovine serum albumin (GAP-43 and SYN), 3% normal goat serum (VGLUT1), 2% bovine serum albumin (GFAP) in PBS-T] for 1 h at room temperature (RT). Tissue was then incubated with the primary antibody [anti-NeuN biotinylated (1:200, MAB 377B, Millipore, Mass., USA), anti-GAP-43 (1:1000, MAB347, Millipore, Mass., USA), anti-SYN (1:150, SC-7379, Santa Cruz, Calif., USA), anti-VGLUT1 (1:500, AB5905, Millipore, Mass., USA), anti-GFAP (1:200, Z0334, Dako, Stockholm, Sweden), anti-Iba-1 (1:500, 019-19741, Wako, Osaka, Japan)] in blocking buffer overnight at 4° C. One slide per staining batch was incubated only with blocking buffer without primary antibody and used as a negative control. […]\nNeuN positive cells, GFAP positive relative area, as well as GAP-43, SYN, and VGLUT1 positive puncta were counted by using MetaMorph software (ver. 7.8.6, Molecular Devices, CA, USA) on confocal images obtained with a 20× (NeuN and GFAP) or 63× (GAP-43, SYN, and VGLUT1) objective (Carl Zeiss LSM 700 Laser Scanning Microscope, Jena, Germany). Iba-1 positive cell somata were counted on bright field images obtained with a 20× objective (Nikon Eclipse 80i). […]"}
{"substance": "C3a: Purified human C3a peptide (Complement Technologies), C3a receptor agonist, amino acid sequence SEQ ID NO: 1", "values": [{"measurement": "density of GAP-43+ puncta in CA1", "setting": "between groups", "result": "did not find any differences between groups"}, {"measurement": "expression of GAP-43 in the dentate gyrus", "setting": "mouse, in vivo", "result": "No effect"}, {"measurement": "average GAP-43+ punctum area in CA1 of HI injured hippocampus vs sham mice", "setting": "p<0.05 for PBS", "result": "PBS treated, but not C3a treated, mice was larger compared with sham mice"}]}
